# pEC50, pIC50: −log10 of the molar value. The source made the active and inactive calls. No cut-off for these calls is given here.
# Legend:
# [1] = Inhibition of Influenza A virus H5N1 neuraminidase; parameters: species or system H5N1 subtype
# [2] = system: A549; test: Antiviral activity against Influenza A virus H5N1 infected in human A549 cells assessed as inhibition of viral replication by TCID50 assay; type: functional, cell-based; details: H5N1 subtype
# [3] = system: H5N1 subtype; test: Antiviral activity against Influenza A virus H5N1 (A/chicken/Hubei/327/2004(H5N1)) infected in dog MDCK cells assessed as inhibition of virus replication by plaque reduction assay; type: functional, organism-based
# [4] = Selectivity index, ratio of CC50 for cytotoxicity against dog MDCK cells to EC50 for antiviral activity against Influenza A virus (A/chicken/Hubei/327/2004(H5N1)) infected in dog MDCK cells; type: toxicity, cell-based; details: read-out: Ratio CC50/EC50
# [5] = system: H5N1 subtype; test: Potency index, ratio of oseltamivir carboxylate IC50 to test compound IC50 for inhibition of Influenza A virus H5N1 neuraminidase
# [6] = Cytotoxicity against dog MDCK cells assessed as decrease in cell viability by CCK8 assay; type: cell-based, Canis lupus familiaris
Compound,pIC50 [1],also measured
CCOC(=O)c1c(NC(=O)COc2ccccn2)sc(C(=O)OC)c1C,6.02,–
CCOC(=O)c1c(NC(=O)COc2ccc(C=O)cc2)sc(C(=O)OC)c1C,5.05,–
CCOC(=O)c1c(NC(=O)COc2cccc(C=O)c2)sc(C(=O)OC)c1C,5.25,–
CCOC(=O)c1c(NC(=O)COc2cc(Br)ccc2OC)sc(C(=O)OC)c1C,6.62,–
CCOC(=O)c1c(NC(=O)COc2cccc3ncccc23)sc(C(=O)OC)c1C,7.40,–
CCOC(=O)c1c(NC(=O)COc2cccc(C(C)=O)c2)sc(C(=O)OC)c1C,5.32,–
CCOC(=O)c1c(NC(=O)COc2ccc(C=O)cc2OC)sc(C(=O)OC)c1C,5.36,–
CCOC(=O)c1c(NC(=O)COc2ccc3ncccc3c2)sc(C(=O)OC)c1C,7.52,Activity [2]: Active; pEC50 [3]: 5.80; selectivity ratio [4]: > 500; Ratio IC50 [5]: 2; CC50 [6]: > 800000 nM
CCOC(=O)c1c(NC(=O)COc2ccc(C=O)cc2OCC)sc(C(=O)OC)c1C,7.15,–
CCOC(=O)c1c(NC(=O)COc2ccc(NC(C)=O)cc2)sc(C(=O)OC)c1C,7.30,–
